Experimental data reported in patent publication US20250051324A1, “PARP INHIBITOR, PHARMACEUTICAL COMPOSITION COMPRISING SAME, AND USE THEREOF” (KEYTHERA (SUZHOU) BIO-PHARMACEUTICALS CO., LIMITED, priority 2021, published 2025).
Where two headings read alike, the source gives them in different places. Values belong to the compound of their own block, whether it stands above or below them.

Experiments:
PARP1 [1] = target: T1, PARP1 (Homo sapiens (Human), UniProt P09874); experiment: PARP enzyme activity assay (PARP1 chemiluminescent assay kit); type: biochemical; conditions: enzyme inhibitory activity, read-out: PARP-1 IC50
From the text: Experimental Materials: The PARP1 assay kit was purchased from BPS Bioscience, USA, specifically the 384-well chemiluminescent assay kit (Catalog No.: #80551).
Experimental Principle: PARP can catalyze the transfer of ADP-ribose residues from NAD+ to target substrates, thereby modifying proteins through ribosylation. This experiment measures PARP1 enzyme activity by detecting the poly(ADP-ribosylation) of histones by PARP1.
Preparation of Reagents and Test Compounds: The 10× assay buffer included in the kit was diluted to 1× with distilled water. The test compound (stock concentration of 10 mM) was diluted to 10 μM with a DMSO solution and then serially diluted in a 1:3 ratio. The serially diluted compounds were further diluted 10-fold with the 1× assay buffer.
Experimental Method: The procedure was carried out according to the kit's instructions:
1. The 5× histone mixture was diluted to 1× with PBS, and 25 μL was added to each well of a 384-well plate, incubating overnight at 4° C.
2. After incubation, 100 μL of PBST (0.05% Tween 20) was added to each well for washing, repeated three times. Then, 100 μL of blocking solution was added to each well and incubated at room temperature for 90 minutes.
3. After incubation, the wells were washed three times with PBST, and then 1.25 μL of 10× assay buffer, 1.25 μL of 10×PARP assay mixture, 2.5 μL of activation DNA (5×), and 7.5 μL of distilled water were added to each well.
4. […] The positive control group and the negative control group were added with 1× assay buffer containing the same concentration of DMSO.
5. Next, 10 μL of 2.5 ng/μL PARP1 enzyme was added to the test compound and positive control groups, while 10 μL of 1× assay buffer was added to the negative control group, and the mixture was incubated at room temperature for 60 minutes.
6. Streptavidin-HRP was diluted 1:50 with the blocking solution. After incubation, the plate was washed three times with PBST, and 25 μL of the diluted streptavidin-HRP solution was added to each well, incubating at room temperature for 30 minutes.
7. After incubation, the plate was washed three times with PBST, and 50 μL of the mixed substrate A and substrate B in equal volumes was added. The luminescence signal was immediately read on a Synergy HTX multi-mode reader.
(§1) 8. Data analysis was performed using GraphPad Prism 8.0 software. The inhibition rate %=100*(average luminescence signal of the positive control group−luminescence signal of the compound)/(average luminescence signal of the positive control group−average luminescence signal of the negative control group). The IC50 value was obtained by plotting the logarithm of the compound concentration against the percentage inhibition rate.

[2] = system: UWB1.289 ovarian cancer cells; experiment: Cell proliferation assay, UWB1.289; type: cell-based; conditions: UWB1289, 168 h, read-out: UWB1.289 Cell IC50
Description: (§2) Experimental Materials: MDA-MB-436 or UWB1.289 cell lines were purchased from Cobioer Biosciences Co. Ltd. (Nanjing, China). The STR identification results were a complete match, and mycoplasma testing was negative. MDA-MB-436 cells were cultured in DMEM complete medium containing 10% fetal bovine serum, 1% penicillin-streptomycin, 1% insulin, and 16 μg/mL glutathione; UWB1.289 cells were cultured in RMPI1640 complete medium containing 10% fetal bovine serum and 1% penicillin-streptomycin.
(§3) 1. MDA-MB-436 or UWB1.289 cells were cultured in the aforementioned medium (culture conditions: 37° C., 5.0% CO2 in air) until they reached the logarithmic growth phase. The cells were then digested with trypsin containing 0.25% EDTA, centrifuged at 1000 rpm, and the supernatant was discarded. Cell culture medium was added, and the cell suspension was adjusted to 2×10^4/mL after counting. 135 μL of the cell suspension per well was taken and cultured in a 96-well cell culture plate for 16 hours (culture conditions: 37° C., 5.0% CO2 in air).
(§4) 2. The test compounds, stored at a concentration of 10 mM, were diluted 2.5 times with DMSO and then serially diluted in a 1:3 gradient (9 gradients). The gradient-diluted samples were further diluted 40 times with serum-free medium, and 15 μL of each was added to the 96-well cell culture plate. The positive control group received serum-free medium containing the same concentration of DMSO, and the negative control group received medium without cells. The cells were then cultured for an additional 7 days.
(§5) 3. After the culture period, the cell culture plate was placed at room temperature for 30 minutes. Then, 100 μL of CellCounting-Lite 2.0 reagent (Vazyme, #DD1101) was added to each well, mixed thoroughly, and incubated in the dark at room temperature for 10 minutes. The luminescence signal was read using a Synergy HTX multi-mode reader.
as §1, with “4. Data” for “8. Data”, “rate (%) was calculated as 100*(average” for “rate %=100*(average”

PARP1 [3] = target: T1, PARP1; experiment: PARP1 trapping assay; type: biochemical; conditions: read-out: Inhibitory Effect on PARP1 Trapping IC50
Description: [table] […] 1. A 4× enzyme reaction mixture, comprising PARP1, PARP2, and GST-Tb antibody, was prepared with the buffer and 4 μL of the enzyme reaction mixture was added to a 384-well plate. 2. A 4×PARP1 and PARP2 probe reaction mixture was prepared with the buffer and 4 μL of the probe reaction mixture was added to the 384-well plate. 3. A series of gradient-diluted compounds were prepared and 4 μL of the diluted compounds were added to the 384-well plate, and incubated at room temperature for 45 minutes. 4. After incubation, 4 μL of 4×NAD reaction mixture was added to the 384-well plate and incubated at room temperature for 10 minutes. 5. After incubation, the plate was read using a plate reader. 6. Data Analysis: The percentage inhibition rate was calculated as follows: Inhibition Rate (%)=(Reading of Compound Group−Reading of Blank Group)/(Reading of Vehicle Control Group−Reading of Blank Group).

[4] = system: MDA-MB-436 breast cancer cells; experiment: Cell proliferation assay, MDA-MB-436; type: cell-based; conditions: Homo sapiens, MDA-MB-436, 168 h, read-out: MDA-MB-436 Cell IC50
Description: as §2, §3, §4, §5
as §1, with “4. Data” for “8. Data”, “rate (%) was calculated as 100*(average” for “rate %=100*(average”

[5] = Evaluation of pharmacokinetics in mice; conditions: male, ICR (CD1), mouse, plasma, po, 10 mg/kg
Description: Test Objective: The pharmacokinetics of the example compounds of the present application were tested in mice. By measuring the drug concentration in mouse plasma, the pharmacokinetic behavior of the compounds of the present invention was studied to evaluate their pharmacokinetic characteristics.
Test Animals: 6-8 Week Old Male ICR (CD1) Mice
Oral Gavage Drug Preparation: An appropriate amount of the test compound was first weighed and dissolved in DMSO (Macklin cas: 67-68-5) to prepare a 20 mg/mL solution. Then, 75 μL of this solution was added to 150 μL of Solutol (Sigma cas: 70142-34-6), followed by 1.275 mL of 20% Captisol (Selleck cas: 182410-00-0), resulting in a final drug concentration of 1 mg/mL.
Intravenous Injection Drug Preparation: An appropriate amount of the test compound was first weighed and dissolved in DMSO (Macklin cas: 67-68-5) to prepare a 30 mg/mL solution. Then, 15 μL of this solution was added to 150 μL of Solutol (Sigma cas: 70142-34-6), followed by 1.335 mL of 20% Captisol (Selleck cas: 182410-00-0), resulting in a final drug concentration of 0.3 mg/mL.
Procedures: The mice were fasted overnight with free access to water before the experiment. Food was restored two hours after dosing. Blood samples were collected at different time points after intravenous injection or oral gavage of the test compound in mice, and the compound concentration in plasma was measured. Approximately 50 μL of blood was collected from each animal using a capillary sampling tube via the orbital venous plexus, with heparin sodium as an anticoagulant. Blood samples were placed on ice, centrifuged at 3500 r/min for 10 minutes to separate the plasma, and 20 μL of the collected plasma was added to 200 μL of acetonitrile (Merck cas: 75-05-8) containing 200 nM dexamethasone (Selleck cas: 50-02-2) as an internal standard. The mixture was centrifuged at 8000 r/min for 20 minutes. After centrifugation, 150 μL of the supernatant was transferred to a new centrifuge tube, and 150 μL of 0.1% formic acid (Fisher cas: 207868) was added. The mixture was mixed well, and 5 μL of the sample was subjected to quantitative analysis by liquid chromatography-mass spectrometry (Q-TOF LC/MS).
The test compound was serially diluted with DMSO to cover the compound concentrations expected in plasma samples to be tested, with a blank sample (containing only DMSO) included.
2 μL of each diluted sample at various concentrations was added to 18 μL of normal ICR mouse plasma, mixed, and then added to 200 μL of acetonitrile (Merck cas: 75-05-8) containing 200 nM dexamethasone (Selleck cas: 50-02-2) as an internal standard. The mixture was centrifuged for 20 minutes (8000 r/min). 150 μL of the supernatant was transferred to a new centrifuge tube, and 150 μL of 0.1% formic acid (Fisher cas: 207868) was added. The mixture was mixed well, and 5 μL of the sample was subjected to quantitative analysis by liquid chromatography-mass spectrometry (Q-TOF LC/MS).
The final standard curve was plotted using the concentration of the test compound after dilution on the abscissa and the ratio of the signal of the compound to the internal standard (dexamethasone) on the ordinate. The standard curve was generated using linear regression with GraphPad Prism 8 software (R2>0.9900).
Data Analysis: calculation of pharmacokinetic parameters: the concentration of the test compound in plasma at different time points after intravenous injection or oral gavage in ICR mice was determined based on the above standard curve, and pharmacokinetic parameters (T1/2, Cmax, AUC, etc.) were calculated using the Phoenix WinNonlin 8.1 non-compartmental analysis model.

[6] = Liver microsome metabolism assay; conditions: CD1, mouse, liver microsomes
Description: Experimental Materials: Mixed CD1 mouse liver microsomal enzyme protein was purchased from Xenotech (#M1000), and NADPH was purchased from Abmole (#M9076).
1. To the liver microsomal enzyme reaction system, 210 μL of phosphate buffer was added, followed by 12.5 μL of liver microsomal enzyme at a concentration of 20 mg/mL. Then, 25 μL of NADPH at a concentration of 10 mM was added to the system, mixed well, and incubated in a 37° C. water bath with shaking for 10 minutes.
2. The test compound, stored at a concentration of 10 mM, was diluted to 100 μM with DMSO. Then, 2.5 μL of the diluted test compound was added to the reaction system, mixed well, and incubated in a 37° C. water bath with shaking.
3. At 0.5, 5, 10, 20, 30, and 60 minutes, 25 μL of the enzyme reaction mixture was taken and added to 125 μL of cold acetonitrile containing dexamethasone as an internal standard. The mixture was centrifuged at 4000 g for 20 minutes, and the supernatant was mixed with an equal volume of distilled water. The mixed sample was then subjected to quantitative analysis by liquid chromatography-mass spectrometry.
4. Calculation of in vitro drug metabolism half-life and drug clearance rate:
t1/2=−0.693/k. (k: the slope of the linear regression of the natural logarithm of the percentage of drug remaining versus incubation time).

T1 sequence (P09874 whole entry): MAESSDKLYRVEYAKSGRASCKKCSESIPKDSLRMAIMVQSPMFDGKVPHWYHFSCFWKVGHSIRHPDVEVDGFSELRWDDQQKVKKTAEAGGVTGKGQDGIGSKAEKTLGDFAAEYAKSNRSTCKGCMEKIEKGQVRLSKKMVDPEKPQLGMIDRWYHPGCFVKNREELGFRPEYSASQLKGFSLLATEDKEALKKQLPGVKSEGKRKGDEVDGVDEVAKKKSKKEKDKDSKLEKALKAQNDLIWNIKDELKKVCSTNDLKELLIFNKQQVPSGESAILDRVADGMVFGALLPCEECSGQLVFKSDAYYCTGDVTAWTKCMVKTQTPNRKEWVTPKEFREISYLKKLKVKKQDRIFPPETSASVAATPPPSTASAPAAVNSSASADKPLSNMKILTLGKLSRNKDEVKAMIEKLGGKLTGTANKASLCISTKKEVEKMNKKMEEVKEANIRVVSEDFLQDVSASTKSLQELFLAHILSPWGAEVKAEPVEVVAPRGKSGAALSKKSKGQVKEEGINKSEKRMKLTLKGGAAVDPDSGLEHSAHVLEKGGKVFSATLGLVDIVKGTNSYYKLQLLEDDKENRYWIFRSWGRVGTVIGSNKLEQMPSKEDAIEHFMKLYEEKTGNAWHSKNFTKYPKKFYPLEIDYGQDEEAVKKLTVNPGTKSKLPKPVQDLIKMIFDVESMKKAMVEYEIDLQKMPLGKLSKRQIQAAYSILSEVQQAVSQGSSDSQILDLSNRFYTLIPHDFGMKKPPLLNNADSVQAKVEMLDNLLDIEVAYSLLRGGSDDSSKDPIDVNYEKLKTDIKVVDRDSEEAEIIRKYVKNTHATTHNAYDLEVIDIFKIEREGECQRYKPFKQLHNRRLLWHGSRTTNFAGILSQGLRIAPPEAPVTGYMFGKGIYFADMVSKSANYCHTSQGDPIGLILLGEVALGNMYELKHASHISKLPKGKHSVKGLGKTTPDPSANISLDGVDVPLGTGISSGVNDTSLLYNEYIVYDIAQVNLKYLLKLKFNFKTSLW

Structure (SMILES): CNC(=O)c1ccc(N2CCN(Cc3cnc4c(C)c(C(F)(F)F)c(=O)[nH]c4c3)CC2C)cn1 (stereo not shown) [Compound 10, N-methyl-5-(2-methyl-4-((8-methyl-6-oxo-7-(trifluoromethyl)-5,6-dihydro-1,5-naphthyridin-3-yl)methyl)piperazin-1-yl)picolinamide]
- IC50 (PARP1 [1]): 2.79 nM
- IC50 ([2]; proliferation, 7 days): 15 nM

Structure (SMILES): CNC(=O)c1ccc(N2CCN(Cc3cnc4c(C)c(C(F)(F)F)c(=O)[nH]c4c3)CC2)c(F)n1 [Compound 93, 6-fluoro-N-methyl-5-(4-((8-methyl-6-oxo-7-(trifluoromethyl)-5,6-dihydro-1,5-naphthyridin-3-yl)methyl)piperazin-1-yl)picolinamide]
- IC50 (PARP1 [3]): 1.32 nM
- IC50 [2]: 2.67 nM
- IC50 [4]: 0.83 nM
- AUC(0-inf) [5]: 796 µg·h/mL
- Cmax [5]: 31900 ng/mL
- half-life [5]: 18.4 h

Structure (SMILES): CNC(=O)c1ccc(N2CCN(Cc3cnc4c(C)c(C(F)(F)F)c(=O)[nH]c4c3)CC2C#N)cn1 (stereo not shown) [Compound 72, 5-(2-cyano-4-((8-methyl-6-oxo-7-(trifluoromethyl)-5,6-dihydro-1,5-naphthyridin-3-yl)methyl)piperazin-1-yl)-N-methylpicolinamide]
- IC50 ([4]; proliferation, 7 days): 8.18 nM
- microsomal CLint at 1 µM [6]: 0.6 µL/min/mg

Structure (SMILES): CNC(=O)c1ccc(N2CCN(Cc3cnc4c(C)c(C(F)F)c(=O)[nH]c4c3)CC2)cn1 [Compound 100, 5-(4-((7-(difluoromethyl)-8-methyl-6-oxo-5,6-dihydro-1,5-naphthyridin-3-yl)methyl)piperazin-1-yl)-N-methylpicolinamide]
- IC50 (PARP1 [3]): 2.58 nM
- IC50 [4]: 2.05 nM

Structure (SMILES): CNC(=O)c1ccc(N2CCN(Cc3cnc4c(C)c(C(F)(F)F)c(=O)[nH]c4c3)C(CC#N)C2)cn1 (stereo not shown) [Compound 3, 5-(3-(cyanomethyl)-4-((8-methyl-6-oxo-7-(trifluoromethyl)-5,6-dihydro-1,5-naphthyridin-3-yl)methyl)piperazin-1-yl)-N-methylpicolinamide]
- IC50 (PARP1 [1]): 1.53 nM

Structure (SMILES): CNC(=O)c1ccc(N2CCN(Cc3cnc4c(C)c(C(F)(F)F)c(=O)[nH]c4c3)C(C)C2)cn1 (stereo not shown) [Compound 11, N-methyl-5-(3-methyl-4-((8-methyl-6-oxo-7-(trifluoromethyl)-5,6-dihydro-1,5-naphthyridin-3-yl)methyl)piperazin-1-yl)picolinamide]
- IC50 (PARP1 [1]): 0.96 nM
- IC50 ([2]; proliferation, 7 days): 28.5 nM
- AUC(0-inf) [5]: 1500 µg·h/mL
- Cmax [5]: 55900 ng/mL
- half-life [5]: 18.9 h

Structure (SMILES): CNC(=O)c1ccc(N2CCN(Cc3cnc4c(C)c(C(F)(F)F)c(=O)[nH]c4c3)C(COC)C2)cn1 (stereo not shown) [Compound 8, 5-(3-(methoxymethyl)-4-((8-methyl-6-oxo-7-(trifluoromethyl)-5,6-dihydro-1,5-naphthyridin-3-yl)methyl)piperazin-1-yl)-N-methylpicolinamide]
- IC50 (PARP1 [1]): 2.55 nM
- IC50 ([2]; proliferation, 7 days): 12.6 nM

Structure (SMILES): CNC(=O)c1ccc(N2CCN(Cc3cnc4c(C)c(C#N)c(=O)[nH]c4c3)CC2)cn1 [Compound 85, 5-(4-((7-cyano-8-methyl-6-oxo-5,6-dihydro-1,5-naphthyridin-3-yl)methyl)piperazin-1-yl)-N-methylpicolinamide]
- IC50 ([4]; proliferation, 7 days): 16.4 nM
- microsomal CLint at 1 µM [6]: 0.86 µL/min/mg

Results, then the compound that gave them:

- microsomal CLint at 1 µM [6]: 0.72 µL/min/mg
Structure (SMILES): Cc1c(C(F)(F)F)c(=O)[nH]c2cc(CN3CCN(c4cc5c(cn4)C(=O)N(C)C5)CC3)cnc12 [Compound 84, 4-methyl-7-((4-(2-methyl-3-oxo-2,3-dihydro-1H-pyrrolo[3,4-c]pyridin-6-yl)piperazin-1-yl)methyl)-3-(trifluoromethyl)-1,5-naphthyridin-2(1H)-one]

- IC50 (PARP1 [3]): 1.53 nM
- IC50 ([4]; proliferation, 7 days): 1.69 nM
Structure (SMILES): Cc1c(C(F)(F)F)c(=O)[nH]c2cc(CN3CCN(c4ccc(C(=O)NC5CC5)nc4)CC3)cnc12 [Compound 99, N-cyclopropyl-5-(4-((8-methyl-6-oxo-7-(trifluoromethyl)-5,6-dihydro-1,5-naphthyridin-3-yl)methyl)piperazin-1-yl)picolinamide]

- IC50 (PARP1 [1]): 1.26 nM
- IC50 ([2]; proliferation, 7 days): 26.6 nM
Structure (SMILES): Cc1c(C(F)(F)F)c(=O)[nH]c2cc(CN3CCN(c4ccc(C#N)cn4)CC3)cnc12 [Compound 20, 6-(4-((8-methyl-6-oxo-7-(trifluoromethyl)-5,6-dihydro-1,5-naphthyridin-3-yl)methyl)piperazin-1-yl)nicotinonitrile]

- IC50 ([2]; proliferation, 7 days): 8.13 nM
Structure (SMILES): CNC(=O)c1ccc(C2CCN(Cc3cnc4c(C)c(C(F)(F)F)c(=O)[nH]c4c3)CC2)cn1 [Compound 71, N-methyl-5-(1-((8-methyl-6-oxo-7-(trifluoromethyl)-5,6-dihydro-1,5-naphthyridin-3-yl)methyl)piperidin-4-yl)picolinamide]

- IC50 (PARP1 [1]): 15.9 nM
Structure (SMILES): Cc1c(C(F)(F)F)c(=O)[nH]c2cc(CN3CCN(c4ccc5[nH]c(=O)[nH]c5n4)CC3)cnc12 [Compound 18, 4-methyl-7-((4-(2-oxo-2,3-dihydro-1H-imidazo[4,5-b]pyridin-5-yl)piperazin-1-yl)methyl)-3-(trifluoromethyl)-1,5-naphthyridin-2(1H)-one]

- IC50 ([2]; proliferation, 7 days): 13.6 nM
Structure (SMILES): CNC(=O)c1ccc(N2CCN(Cc3cnc4c(C)c(C(F)(F)F)c(=O)[nH]c4c3)C[C@@H]2C)cn1 [Compound 53, (S)—N-methyl-5-(2-methyl-4-((8-methyl-6-oxo-7-(trifluoromethyl)-5,6-dihydro-1,5-naphthyridin-3-yl)methyl)piperazin-1-yl)picolinamide]

- IC50 (PARP1 [1]): 7.37 nM
Structure (SMILES): CNS(=O)(=O)c1ccc(N2CCN(Cc3cnc4c(C)c(C(F)(F)F)c(=O)[nH]c4c3)CC2)cc1 [Compound 13, N-methyl-4-(4-((8-methyl-6-oxo-7-(trifluoromethyl)-5,6-dihydro-1,5-naphthyridin-3-yl)methyl)piperazin-1-yl)benzenesulfonamide]
